Test in all cases: growth of human tumour cells (NCI), 48 h
Test [1] relates to SW-620 colon.
For test [2], the system named is PC-3 prostate.
The test system of test [3] is SF-295 CNS.
Test [4] concerns MOLT-4 leukemia.
Test [5] has as its system A549 NSCLC.
Test [6] has as its system NCI-H460 lung.
Test [7] relates to MALME-3M melanoma.
In test [8] the test system is NCI/ADR-RES ovarian.
The test system of test [9] is HS 578T breast.
Test [10] has as its system SN12C renal.

Each structure is given as a SMILES string.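 Method: 48-hour compound exposure of cells in 96-well plates, five concentrations, linear interpolation of endpoints. GI50 marks 50% less growth. TGI marks complete inhibition of growth.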

This passage reports GI50 and TGI results from PubChem BioAssay (NCI).

As for `Nc1nccc2c1ccn2-c1cccc(NC(=O)c2ccc(N3CCOCC3)c(C(F)(F)F)c2)c1`, the GI50 was 0.49 µM in [1]; 0.565 µM in test [2]; 0.371 µM in test [3]; 1.7 µM in [4]; 0.922 µM in [5]; 0.297 µM in test [6]. In addition, the GI50 is 0.634 µM in [7], 0.361 µM in test [8], 0.34 µM in test [9] and 1.91 µM in [10]. Moreover, the TGI in [1] was more than 50 µM; in test [2], 15 µM; in [3] it was 1.85 µM; in test [4], more than 22.8 µM; in test [5], more than 50 µM; in test [6], 5.42 µM. The TGI in test [7] is 16.7 µM; in [8], more than 10.2 µM; in test [9] it was 2.43 µM; in test [10], more than 50 µM.

`Fc1cccc(Cl)c1Cn1c(-c2c(F)cccc2Cl)nc2ccccc21`: the GI50 in test [1] is 16.8 µM; in test [2], 14.7 µM; in [3], 16.8 µM; in [4], 11.1 µM; in test [5], 11.6 µM; in [6] it was 13.1 µM. Further, the GI50 is 8.29 µM in test [7], 18.7 µM in test [8], 21.6 µM in [9] and 15.7 µM in [10]. The TGI in [1] was 38 µM; in [2] it was 55.3 µM; in test [3], 46.8 µM; in test [4], more than 100 µM; in test [5], 33.7 µM; in [6] it was 34.1 µM. The TGI in [7] stood at 24.7 µM; in test [8], 54.4 µM; in test [9], 65.3 µM; in [10] it was 30.8 µM.

In the case of `COc1cc2cnc(-c3ccccc3)cc2cc1OC`, the TGI in test [1] was more than 100 µM; in test [2], 77.5 µM; in test [3] it was 45.1 µM; in [4] it was 50.7 µM; in test [5] it was 85.3 µM; in test [6], more than 100 µM. For the same compound, the TGI in test [7] came out at 60.4 µM; in [8], 73.6 µM; in test [9], 53.8 µM; in test [10] it was 22.2 µM.

`O=C1/C(=C/c2ccc(Cl)cc2)CCC1CN1CCOCC1` (stereo not given): the TGI in [1] is 6.71 µM; in test [2] it was 18.5 µM; in test [3], 38.1 µM; in [4] it was 4.21 µM; in test [5] it was 55.9 µM; in test [6] it was 39.2 µM. Further, the TGI in test [7] is 20.3 µM; in [8], 22.5 µM; in [9], more than 100 µM; in [10], 8.9 µM.

On to `C[C@@H](Oc1cc(-n2cnc3ccc(OCC4CCN(C)CC4)cc32)sc1C(N)=O)c1ccccc1Cl`, for which the GI50 was 0.0267 µM in test [1]; 0.136 µM in test [2]; 0.0853 µM in test [3]; 0.0585 µM in [4]; 0.0919 µM in [5]; 0.0846 µM in test [6]. Moreover, the GI50 was 2.93 µM in test [7], 0.258 µM in test [8], 0.0759 µM in test [9] and 0.344 µM in test [10]. Besides, the TGI came out at 3.27 µM in test [1]; 4.42 µM in test [2]; 3.31 µM in [3]; 3.13 µM in test [4]; 2.93 µM in test [5]; 3.04 µM in [6]. Also, the TGI is 6.95 µM in [7], 2.4 µM in test [8], 0.502 µM in [9] and 4.52 µM in test [10].

For `COc1cc(OC)c(F)c(COc2cnc(Nc3cnn(CCO)c3)nc2)c1F`, the GI50 in test [1] is 0.412 µM; in test [2], 1.68 µM; in test [3] it was 0.649 µM; in test [4], 0.668 µM; in test [5] it was 1.37 µM; in test [6] it was 0.444 µM. Moreover, the GI50 is 0.923 µM in [7], 0.726 µM in test [8], 0.35 µM in [9] and 1.59 µM in [10]. Besides, the TGI in [1] was more than 100 µM; in test [2], more than 100 µM; in [3], more than 29.8 µM; in test [4] it was more than 100 µM; in test [5], more than 100 µM; in test [6], more than 100 µM. Moreover, the TGI in test [7] is 7.66 µM; in test [8], more than 100 µM; in test [9] it was 3.43 µM; in test [10], more than 100 µM.

As for `CN(C)CC1CCCCCC(Br)C1=O` (stereo not given), the TGI in test [1] was 12.7 µM; in test [2], 43.6 µM; in test [3], more than 100 µM; in test [4] it was 2.83 µM; in test [5], more than 100 µM; in [6], 49.6 µM. Further, the TGI in test [7] turned out to be 17.6 µM; in [8] it was 37.8 µM; in test [9] it was 61.5 µM; in test [10] it was 32.2 µM.

Regarding `COC1C(CO)OC(n2c3c(Cl)cccc3c3c4c(c5c6cccc(Cl)c6[nH]c5c32)C(=O)NC4=O)C(O)C1O` (stereo not given), the TGI was more than 100 µM in test [1]; more than 100 µM in test [2]; 4.32 µM in test [3]; more than 100 µM in [4]; 8.2 µM in test [5]; 0.479 µM in [6]. For the same compound, the TGI in test [7] was 1.12 µM; in [8], more than 100 µM; in test [9], more than 100 µM; in test [10] it was more than 29.2 µM.
